Measured values taken from patent publication US12440496B2, “Natriuretic peptide receptor a agonists useful for the treatment of cardiometabolic diseases, kidney disease and diabetes” (Merck Sharp & Dohme LLC, priority 2019, dated 2025).

What follows are compounds tested against T1, hNPRA (Homo sapiens, UniProt P16066) (assay: NPRA Functional Cell Assay (cGMP HTRF, NPRA HEK JumpIn stable cells)). Details: cGMP production, 1 hour at 37° C., 10-point dose response.
T1 construct: expressed in transfected cells
T1 sequence (P16066 33-1061): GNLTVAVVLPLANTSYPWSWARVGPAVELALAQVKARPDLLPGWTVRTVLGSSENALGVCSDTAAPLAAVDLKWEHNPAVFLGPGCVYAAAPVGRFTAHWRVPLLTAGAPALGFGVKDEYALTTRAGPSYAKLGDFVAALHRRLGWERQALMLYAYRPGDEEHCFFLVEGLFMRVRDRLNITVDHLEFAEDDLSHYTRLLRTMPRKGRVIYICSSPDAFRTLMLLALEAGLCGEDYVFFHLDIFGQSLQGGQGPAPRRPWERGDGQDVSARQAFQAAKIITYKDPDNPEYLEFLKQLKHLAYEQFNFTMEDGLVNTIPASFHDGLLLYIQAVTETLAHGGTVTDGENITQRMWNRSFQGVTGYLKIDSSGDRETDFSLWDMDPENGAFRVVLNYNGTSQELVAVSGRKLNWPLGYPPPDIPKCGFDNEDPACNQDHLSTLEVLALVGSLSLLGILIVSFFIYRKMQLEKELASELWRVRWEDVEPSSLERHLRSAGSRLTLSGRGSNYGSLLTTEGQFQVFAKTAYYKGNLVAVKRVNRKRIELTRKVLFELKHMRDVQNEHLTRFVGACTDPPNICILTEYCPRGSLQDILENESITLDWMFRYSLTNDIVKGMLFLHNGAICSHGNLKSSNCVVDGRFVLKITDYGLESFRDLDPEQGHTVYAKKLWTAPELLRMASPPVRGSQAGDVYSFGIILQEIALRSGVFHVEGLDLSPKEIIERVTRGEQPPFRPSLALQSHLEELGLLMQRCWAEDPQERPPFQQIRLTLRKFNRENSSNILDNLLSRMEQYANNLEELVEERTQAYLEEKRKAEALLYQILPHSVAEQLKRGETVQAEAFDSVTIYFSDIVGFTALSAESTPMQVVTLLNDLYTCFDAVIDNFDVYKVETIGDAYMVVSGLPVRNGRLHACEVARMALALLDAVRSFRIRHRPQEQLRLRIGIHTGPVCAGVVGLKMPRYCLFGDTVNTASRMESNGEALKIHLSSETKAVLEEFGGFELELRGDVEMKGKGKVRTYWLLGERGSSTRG
Assay type: cell-based
In short: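 cGMP HTRF read-out after 1 hour compound treatment at 37° C. of human NPRA-expressing HEK JumpIn cells, 1500 cells/well, in buffer with phosphodiesterase inhibitors IBMX and RO20 (100 uM each). Signal converted to [cGMP] by calibration curve; EC50s fitted by 4-parameter logistic; 50 nM h-ANP as positive response.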
`CC(C)(C)[C@H]1CCc2nc3sc(C(=O)N[C@H](CCN4CCC(O)CC4)c4ccc(OCC(N)=O)nc4)nc3cc2C1` (racemic) [Example 193, rac-(7S)-7-tert-butyl-N-[rac-(1R)-1-[6-(2-amino-2-oxo-ethoxy)-3-pyridyl]-3-(4-hydroxy-1-piperidyl)propyl]-5,6,7,8-tetrahydrothiazolo[5,4-b]quinoline-2-carboxamide] was tested, and the EC50 was 787 nM. `CC(C)(C)[C@H]1CCc2nc3sc(C(=O)N[C@H](CCN4C[C@@H](O)[C@H](O)C4)c4ccc(-c5ccc(=O)[nH]c5)cc4)cc3cc2C1` (racemic) [Example 51, rac-(6S)-6-tert-butyl-N-[rac-(1R)-1-[4-(6-oxo-1H-pyridin-3-yl)phenyl]-3-[rac-(3R,4R)-3,4-dihydroxypyrrolidin-1-ium-1-yl]propyl]-5,6,7,8-tetrahydrothieno[2,3-b]quinoline-2-carboxamide;formate] showed an EC50 of 705 nM. Compound `CN1CC(NC(=O)c2cccc([C@@H](CCNCC(=O)O)NC(=O)c3nc4cc5c(nc4s3)CC[C@H](C(C)(C)C)C5)c2)C1` (racemic) [Example 115, carboxymethyl-[rac-(3R)-3-[3-[(1-methylazetidin-3-yl)carbamoyl]phenyl]-3-[rac-(7S)-7-tert-butyl-5,6,7,8-tetrahydrothiazolo[5,4-b]quinoline-2-carbonyl]amino]propyl]ammonium; 2,2,2-trifluoroacetate] has an EC50 of 1410 nM. `CC(C)(C)[C@H]1CCc2nc3sc(C(=O)N[C@H](CCN4CC(O)C4)c4ccccc4)cc3cc2C1` [Example 256, (6S)-6-tert-butyl-N-[(1R)-3-(3-hydroxyazetidin-1-yl)-1-phenylpropyl]-5,6,7,8-tetrahydrothieno[2,3-b]quinoline-2-carboxamide] gave an EC50 of 3100 nM. With `CC(C)(C)[C@H]1CCc2nc3sc(C(=O)N[C@H](CCN4CCC(O)CC4)c4cnc(-c5ccnnc5)c(F)c4)nc3cc2C1` [Example 266, (S)-7-(tert-butyl)-N-((R)-1-(5-fluoro-6-(pyridazin-4-yl)pyridin-3-yl)-3-(4-hydroxypiperidin-1-yl)propyl)-5,6,7,8-tetrahydrothiazolo[5,4-b]quinoline-2-carboxamide] the EC50 was 142 nM. With `Cc1nn(-c2ccc([C@@H](CCN3CCC(O)CC3)NC(=O)c3nc4cc5c(nc4s3)CC[C@H](C(C)(C)C)C5)cn2)c(C)c1O` (racemic) [Example 187, ammonium; 3,5-dimethyl-1-[5-[rac-(1R)-3-(4-hydroxy-1-piperidyl)-1-[[rac-(7S)-7-tert-butyl-5,6,7,8-tetrahydrothiazolo[5,4-b]quinoline-2-carbonyl]amino]propyl]-2-pyridyl]pyrazol-4-olate] the EC50 was 641 nM. For `CC(C)(C)[C@H]1CCc2nc3sc(C(=O)N[C@H](CCN4CCC(C(=O)O)CC4)c4cccc(C(=O)NC5CCN(C6CC6)C5)c4)nc3cc2C1` (mixture of isomers) [Example 124, 1-[rac-(3R)-3-[3-[(1-cyclopropylpyrrolidin-3-yl)carbamoyl]phenyl]-3-[[rac-(7S)-7-tert-butyl-5,6,7,8-tetrahydrothiazolo [5,4-b]quinoline-2-carbonyl]amino]propyl]piper idin-1-ium-4-carboxylic acid; 2,2,2-trifluoroacetate], the EC50 was 929 nM. In the case of `Cc1n[nH]cc1-c1ccc([C@@H](CCN2CCC(O)CC2)NC(=O)c2nc3cc4c(nc3s2)CC[C@H](C(C)(C)C)C4)cc1` (racemic) [Example 171, rac-(7S)-7-tert-butyl-N-[rac-(1R)-3-(4-hydroxy-1-piperidyl)-1-[4-(3-methyl-1H-pyrazol-4-yl)phenyl]propyl]-5,6,7,8-tetrahydrothiazolo[5,4-b]quinoline-2-carboxamide], the EC50 is reported as 913 nM. With `CN1CC(NC(=O)c2cccc([C@@H](CCN3CCC(O)CC3)NC(=O)c3nc4cc5c(nc4s3)CC[C@H](C(C)(C)C)C5)c2)CCC1=O` (mixture of isomers) [Example 158, rac-(7S)-7-tert-butyl-N-[rac-(1R)-3-(4-hydroxy-1-piperidyl)-1-[3-[(1-methyl-6-oxo-3-piperidyl)carbamoyl]phenyl]propyl]-5,6,7,8-tetrahydrothiazolo[5,4-b]quinoline-2-carboxamide] the EC50 was 890 nM.
